In data set [1] the test system is Influenza A virus. As to the kind of experiment: Antiviral activity against Influenza A virus A/WSN/33(H1N1) infected in HEK293T cells by Gaussia luciferase assay. The settings on record: HEK-293T. The format is functional, organism-based.
Data set [2] is described as follows: Selectivity index, ratio of CC50 for cytotoxicity against dog MDCK cells to IC50 for antiviral activity against Influenza A virus A/WSN/33(H1N1) infected in HEK293T cells. In kind it is toxicity, cell-based. The conditions noted are these: read-out: Selectivity Index.
Data set [3] deals with Influenza A virus. As to the kind of experiment: Antiviral activity against Influenza A virus A/WSN/33(H1N1) infected in HEK293T cells assessed as inhibition of viral replication at 50 uM by Gaussia luciferase assay. In kind it is functional. The settings on record: HEK-293T.
Data set [4] in a line: Cytotoxicity against dog MDCK cells by MTT assay. In kind it is toxicity, cell-based, Canis lupus familiaris.

SMILES strings stand for the structures.

In general, IC50 refers to the concentration that inhibits the measured activity by half. Read a high IC50 as a need for much substance. Broadly, the inhibition is how much of the control response was suppressed. The CC50 is the concentration giving 50% cytotoxicity. Low values mean greater toxicity to the cells, high ones lower toxicity to the cells. Consider `O=C1/C=C/CCc2ccc(O)c(c2)-c2cc(ccc2O)C[C@H]1O`, for which, in the data set on Influenza A virus [1], the midpoint of inhibition, the IC50, lay at 8.64 µM. In addition, the selectivity ratio in data set [2] was over 12. For the same molecule, the inhibition at 50 µM in the data set on Influenza A virus [3] came out at 60%. Moreover, the CC50 at 48 h in data set [4] is over 100 µM.
